Assay results taken from patent publication US7803793B2, “Heterocyclic derived metalloprotease inhibitors” (Janssen Pharmaceutica NV, priority 2006, dated 2010).
Where two headings read alike, the source gives them in different places.

Tests used:
[1] = biological target: T1, MMP-2 (Homo sapiens, UniProt P08253); assay: MMP enzymatic assay (Trupoint peptide), MMP-2; assay type: biochemical
T1 construct: Human MMP-2 full length (aa 1-660)
T1 sequence (P08253 30-660): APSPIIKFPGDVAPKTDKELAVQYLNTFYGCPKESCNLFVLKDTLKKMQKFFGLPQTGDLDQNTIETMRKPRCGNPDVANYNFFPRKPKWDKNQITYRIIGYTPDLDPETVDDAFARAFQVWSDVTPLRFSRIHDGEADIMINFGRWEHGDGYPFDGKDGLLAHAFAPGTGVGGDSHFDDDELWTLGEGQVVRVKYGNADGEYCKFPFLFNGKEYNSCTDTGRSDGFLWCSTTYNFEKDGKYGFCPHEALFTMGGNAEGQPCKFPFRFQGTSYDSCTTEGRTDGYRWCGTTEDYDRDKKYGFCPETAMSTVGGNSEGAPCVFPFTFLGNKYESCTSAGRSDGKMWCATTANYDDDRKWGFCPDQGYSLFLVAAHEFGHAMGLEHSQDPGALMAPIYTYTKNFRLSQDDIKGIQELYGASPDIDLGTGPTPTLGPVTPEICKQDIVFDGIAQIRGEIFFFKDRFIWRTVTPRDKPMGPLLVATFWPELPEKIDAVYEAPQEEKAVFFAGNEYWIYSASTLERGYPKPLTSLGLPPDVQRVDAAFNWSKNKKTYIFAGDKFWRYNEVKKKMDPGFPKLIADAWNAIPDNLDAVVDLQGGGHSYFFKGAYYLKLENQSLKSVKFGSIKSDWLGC
Protocol: [formula] • 1) Prepare appropriate 1×MMP assay buffer from 10× stock. […] Need to prepare a 2.5× concentration stock (2.5 μM) to achieve this concentration in 50 μl. Dilute compound to 2.5 mM in 100% DMSO (a 1:40 dilution), then dilute the 2.5 mM compound to 2.5 μM (1:1000) into 1× assay buffer. Make 1 ml 2.5 μM compound in assay buffer. • 4) Fill the rows B through P of a 384-well plate with assay buffer+0.1% DMSO. • 5) Add 30 ul of the 2.5 μM compound in assay buffer to the top row of the plate, doing each compound in triplicate. The plate setup should be as follows, using GM6001 as plate reference compound:
• 6) Serially dilute 10 μl down the plate to achieve 1:3 dilutions in subsequent wells. After each dilution, change pipette tips to avoid compound carryover. Discard the remaining 10 μl after diluting into the final row. • 7) Prepare enzyme dilutions at 2.5× of final desired concentration (see below). Will need 10 ml enzyme solution per plate. Add enzyme to plate, 20 μl per well. Incubate 1 hr.
• 8) Dilute the 500 μM Trupoint peptide 1:1000 into assay buffer to achieve a 5× working stock of 500 nM. Prepare 5 ml total per plate. Add 10 ul of substrate to each well to achieve a final concentration of 100 nM in well. Also prepare background subtraction wells by adding 10 μl 5× substrate to 40 μl assay buffer per well, typically do ˜32 wells. • 9) Incubate assay at room temperature for 15 min. Read in plate reader.
(§1) Analysis Specifications • Calculate average background value from substrate/assay buffer wells • Subtract this from entire plate • Calculate average of DMSO wells for each enzyme. This is the positive control, 100% value. • For each well, calculate percent of control by dividing well value by the average DMSO value obtained above. • Paste percent of control values into Graphpad Prism 4.0.

[2] = biological target: T2, MMP-9 (Homo sapiens, UniProt P14780); assay: MMP enzymatic assay (Trupoint peptide), MMP-9; assay type: biochemical
T2 construct: Human MMP-9 catalytic domain (aa 107-446)
T2 sequence (P14780 107-446): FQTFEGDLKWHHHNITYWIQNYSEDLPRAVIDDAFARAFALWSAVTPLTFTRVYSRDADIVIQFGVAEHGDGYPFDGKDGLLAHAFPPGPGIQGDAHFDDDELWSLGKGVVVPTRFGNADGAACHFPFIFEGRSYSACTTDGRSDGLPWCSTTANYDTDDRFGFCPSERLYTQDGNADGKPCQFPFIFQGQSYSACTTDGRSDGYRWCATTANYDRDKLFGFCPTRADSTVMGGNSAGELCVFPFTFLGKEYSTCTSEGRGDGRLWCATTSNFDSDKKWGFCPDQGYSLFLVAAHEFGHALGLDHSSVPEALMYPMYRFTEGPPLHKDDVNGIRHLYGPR
Protocol: [formula] • 1) Prepare appropriate 1×MMP assay buffer from 10× stock. […] The plate setup should be as follows, using GM6001 as plate reference compound:
• 6) Serially dilute 10 μl down the plate to achieve 1:3 dilutions in subsequent wells. After each dilution, change pipette tips to avoid compound carryover. […] Will need 10 ml enzyme solution per plate. Add enzyme to plate, 20 μl per well. Incubate 1 hr.
Prepare 5 ml total per plate. Add 10 ul of substrate to each well to achieve a final concentration of 100 nM in well. […] Read in plate reader.
as §1

Compound	IC50 [1] [nM]	IC50 [2] [nM]	IC50 ([1]; read-out: MMP-2 nM IC50) [nM]
Cc1ccc(Oc2ccc(N(Cc3cc(C)cn(O)c3=O)S(C)(=O)=O)cc2)cc1 [Compound 51, N-(1-Hydroxy-5-methyl-2-oxo-1,2-dihydro-pyridin-3-ylmethyl)-N-(4-p-tolyloxy-phenyl)-methanesulfonamide]	241	43.9	
Cc1ccc(Oc2ccc(N(Cc3cc(-c4ccccc4)cn(O)c3=O)S(C)(=O)=O)cc2)cc1 [Compound 52, N-(1-Hydroxy-2-oxo-5-phenyl-1,2-dihydro-pyridin-3-ylmethyl)-N-(4-p-tolyloxy-phenyl)-methanesulfonamide]	914	317	
COc1ccc(Oc2ccc(N(Cc3cccn(O)c3=O)S(C)(=O)=O)cc2)cc1 [Compound 53, N-(1-Hydroxy-2-oxo-1,2-dihydro-pyridin-3-ylmethyl)-N-[4-(4-methoxy-phenoxy)-phenyl]-methanesulfonamide]	184	14.7	
CS(=O)(=O)N(Cc1cccn(O)c1=O)c1ccc(Oc2ccc(OC(F)(F)F)cc2)cc1 [Compound 54, N-(1-Hydroxy-2-oxo-1,2-dihydro-pyridin-3-ylmethyl)-N-[4-(4-trifluoro-methoxy-phenoxy)-phenyl]-methanesulfonamide]	466	11.1	
Cc1ccc(C#Cc2ccc(N(Cc3cccn(O)c3=O)S(C)(=O)=O)cc2)cc1 [Compound 55, N-(1-Hydroxy-2-oxo-1,2-dihydro-pyridin-3-ylmethyl)-N-(4-p-tolylethynyl-phenyl)-methanesulfonamide]	> 10000	> 10000	
Cc1ccc(C#Cc2ccc(N(Cc3cccn(O)c3=S)S(C)(=O)=O)cc2)cc1 [Compound 56, N-(1-Hydroxy-2-thioxo-1,2-dihydro-pyridin-3-ylmethyl)-N-(4-p-tolylethynyl-phenyl)-methanesulfonamide]	> 10000	> 10000	
Cc1ccc(S(=O)(=O)Cn2cccc(O)c2=O)cc1 [Compound 60, 3-Hydroxy-1-(toluene-4-sulfonylmethyl)-1H-pyridin-2-one]		1070	468
Cc1ccc(Oc2ccc(S(=O)(=O)Cn3cccc(O)c3=O)cc2)cc1 [Compound 61, 3-Hydroxy-1-(4-p-tolyloxy-benzenesulfonylmethyl)-1H-pyridin-2-one]		45.8	16.7
O=c1c(O)cccn1CS(=O)(=O)c1ccc(Oc2ccc(OC(F)(F)F)cc2)cc1 [Compound 62, 3-Hydroxy-1-[4-(4-trifluoromethoxy-phenoxy)-benzenesulfonylmethyl]-1H-pyridin-2-one]	13.6	4.91	
O=c1c(O)cccn1CS(=O)(=O)c1ccc(Br)s1 [Compound 63, 1-(5-Bromo-thiophene-2-sulfonylmethyl)-3-hydroxy-1H-pyridin-2-one]	> 1000	668	
COc1ccc(-c2ccc(S(=O)(=O)Cn3cccc(O)c3=O)s2)cc1 [Compound 64, 3-Hydroxy-1-[5-(4-methoxy-phenyl)-thiophene-2-sulfonylmethyl]-1H-pyridin-2-one]		522	185
COc1ccc(Oc2ccc(S(=O)(=O)Cn3cccc(O)c3=O)cc2)cc1 [Compound 66, 3-Hydroxy-1-[4-(4-methoxy-phenoxy)-benzenesulfonylmethyl]-1H-pyridin-2-one]		56.1	84.5
COc1ccc(-c2ccc(S(=O)(=O)Cn3cccc(O)c3=O)cc2)cc1 [Compound 67, 3-Hydroxy-1-(4′-methoxy-biphenyl-4-sulfonylmethyl)-1H-pyridin-2-one]	> 10000	> 10000	
CN1CCCN(O)C(=O)[C@@H]1CN(c1ccc(Oc2ccc(C(F)(F)F)cc2)cc1)S(C)(=O)=O [Compound 68, (3S)-1-Hydroxy-3-{N-methanesulfonyl-N-[4-(4-trifluoromethylphenoxy)-phenyl]amino}methyl-4-methyl-1,4-diazepan-2-one]	1250	406	
O=C1C(S(=O)(=O)c2ccc(-c3nc4cc(F)ccc4[nH]3)cc2)CCCCN1O (centres unmarked) [Compound 78, 3-[4-(5-Fluoro-1H-benzoimidazol-2-yl)-benzenesulfonyl]-1-hydroxy-azepan-2-one]		846	377

Further lines, results first:

IC50 [1] [nM]	IC50 [2] [nM]	IC50 ([1]; read-out: MMP-2 nM IC50) [nM]	Compound
46.7	743		O=C1[C@H](NS(=O)(=O)c2ccc(Oc3ccc(C(F)(F)F)cc3)cc2)CCCN1O [Compound 58, (R)—N-(1-Hydroxy-2-oxo-piperidin-3-yl)-4-(4-trifluoromethyl-phenoxy)-benzenesulfonamide]
> 1000	> 1000		O=c1c(O)cccn1CS(=O)(=O)c1ccc(Br)cc1 [Compound 65, 1-(4-Bromo-benzenesulfonylmethyl)-3-hydroxy-1H-pyridin-2-one]
46.7	30.6		O=C1[C@H](CS(=O)(=O)c2ccc(Oc3ccccc3)cc2)NCCCN1O [Compound 69, (3R)-1-Hydroxy-3-(4-phenoxy)benzenesulfonylmethyl-1,4-diazepan-2-one]
	31	95.9	COc1ccc(Oc2ccc(S(=O)(=O)C3CCCCN(O)C3=O)cc2)cc1 (centres unmarked) [Compound 70, 1-Hydroxy-3-[4-(4-methoxy-phenoxy)-benzenesulfonyl]-azepan-2-one]
110	44.4		O=C1C(S(=O)(=O)c2ccc(Oc3ccc(OC(F)(F)F)cc3)cc2)CCCCN1O (centres unmarked) [Compound 71, 1-Hydroxy-3-[4-(4-trifluoromethoxy-phenoxy)-benzenesulfonyl]-azepan-2-one]
	87.9	167	COc1ccc(Oc2ccc(S(=O)(=O)C3CCCN(O)C3=O)cc2)cc1 (centres unmarked) [Compound 72, 1-Hydroxy-3-[4-(4-methoxy-phenoxy)-benzenesulfonyl]-piperidin-2-one]
> 1000	> 1000		O=C1C(S(=O)(=O)c2ccc(-c3nc4cc(C(F)(F)F)ccc4[nH]3)cc2)CCCCN1O (centres unmarked) [Compound 74, 1-Hydroxy-3-[4-(5-trifluoromethyl-1H-benzoimidazol-2-yl)-benzenesulfonyl]-azepan-2-one]
> 1000	> 1000		Cc1ccc2[nH]c(-c3ccc(S(=O)(=O)C4CCCCN(O)C4=O)cc3)nc2c1 (centres unmarked) [Compound 75, 1-Hydroxy-3-[4-(5-methyl-1H-benzoimidazol-2-yl)-benzenesulfonyl]-azepan-2-one]
> 1000	> 1000		N#Cc1ccc2[nH]c(-c3ccc(S(=O)(=O)C4CCCCN(O)C4=O)cc3)nc2c1 (centres unmarked) [Compound 76, 2-[4-(1-Hydroxy-2-oxo-azepane-3-sulfonyl)-phenyl]-1H-benzimidazole-5-carbonitrile]
> 1000	> 1000		COc1ccc2[nH]c(-c3ccc(S(=O)(=O)C4CCCCN(O)C4=O)cc3)nc2c1 (centres unmarked) [Compound 77, 1-Hydroxy-3-[4-(5-methoxy-1H-benzoimidazol-2-yl)-benzenesulfonyl]-azepan-2-one]
> 1000	> 1000		O=C1C(S(=O)(=O)c2ccc(F)cc2)CCCCN1O (centres unmarked) [Compound 79, 3-(4-Fluoro-benzenesulfonyl)-1-hydroxy-azepan-2-one]
> 1000	> 1000		O=C1C(S(=O)(=O)c2ccc(Br)cc2)CCCCN1O (centres unmarked) [Compound 81, 3-(4-Bromo-benzenesulfonyl)-1-hydroxy-azepan-2-one]
> 1000	> 1000		O=C1C(S(=O)(=O)c2ccc(-c3ccc(Cl)cc3)cc2)CCCCN1O (centres unmarked) [Compound 82, 3-(4′-Chloro-biphenyl-4-sulfonyl)-1-hydroxy-azepan-2-one]
